Test results from US20230293475A1, “METHODS OF PROVIDING SO[…] TO SUBJECTS WITH IMPAIRED RENAL FUNCTION” (Axsome Malta Ltd., priority 2020, published 2023).
Like-named read-outs stand apart in the source and are kept apart here.

Assay: Phase 1 single-dose study, urinary excretion of solriamfetol
Format: in vivo, human
Conditions: for Fe(0-48), fraction of the dose excreted unchanged in urine in 48 hours, mean ± SD (%CV) / CL renal: single 75-mg dose; for cumulative amount excreted in urine: Group 5 ESRD, 1 participant; for CL renal: both sexes, human, urine, oral, 75 mg, read-out: CLR, renal clearance, mean ± SD (%CV) (converted)
Protocol: Groups 1-4 received one dose of solriamfetol HCl (89.3 mg; equivalent to 75-mg solriamfetol) on day 1; Group 5 received one dose equivalent to 75-mg dose on day 1 followed by 4-hour hemodialysis (designated Group 5.2), and one dose equivalent to 75-mg solriamfetol on day 8 without hemodialysis (designated Group 5.1). All doses were administered on an empty stomach following an overnight fast except for participants in Group 5, who received a standardized snack on day 7 and breakfast early on day 8 before starting an 8-hour fast. Participants remained fasting for 4 hours after administration, with water allowed except for 1 hour before and after dosing.
Urine samples were collected predose and for the time intervals of 0-4, 4-8, 8-12, 12-24, and 24-48 hours in Groups 1-3, with additional collection for the 48-72 hour time interval in Groups 4 and 5. During the hemodialysis period on day 1 for Group 5, dialysate samples and pre- and post-dialyzer paired blood samples were collected at pre-dialysis (2 hours), and at 3, 4, 5, and 6 hours following dosing. Urine and dialysate samples were aliquoted into polypropylene tubes for freezing and storage at -70° C. until analysis. All blood, urine, and dialysate samples were shipped on dry ice to a central bioanalytical laboratory.
Bioanalytical analyses were performed by a central laboratory (KCAS, LLC, Shawnee, Kansas) using validated proprietary methods that included extraction/derivatization and liquid chromatography-tandem mass spectrometry (LC-MS/MS). Measurement of solriamfetol was over the linear range of 8.42 to 4,210 ng/mL in plasma, 0.21 to 84.2 µg/mL in urine, and 1.68 to 842 ng/mL in dialysate. Solriamfetol was removed from dialysate samples with use of the Fresenius Optiflux F180NR dialyzer (Fresenius Medical Care, Waltham, Massachusetts). Assay performance was monitored by spiking blank interference free human plasma with positive controls and internal standards to generate standard curve and quality control samples. After derivatization, samples were chromatographed on a C8 reversed phase analytical HPLC (high-performance liquid chromatography) column, with subsequent monitoring using an API4000 LC-MS/MS unit (Sciex, Framingham, Massachusetts). Quantification was based on setting a calibration graph using the internal standard method. Coefficients of variation (CVs) for quality control samples were 3.2% to 6.0% for the plasma samples, 1.6% to 5.6% for the urine samples, and 3.5% to 7.1% for the dialysate samples.
The following plasma PK parameters were evaluated using non-compartmental analysis in Phoenix® WinNonlin® Version 6.3: Cmax; time to reach Cmax following drug administration (tmax); t½; area under the plasma concentration-time curve from time zero to time of last quantifiable concentration (AUCt); AUC from time zero to infinity (AUC∞); apparent total clearance of the drug from plasma after oral administration (CL/F); and apparent volume of distribution (Vd/F). The PK parameters for solriamfetol in urine included the amount of unchanged drug excreted in urine (Ae) over 48 or 72 hours; the fraction of the dose excreted unchanged in urine (Fe); and renal clearance of the drug (CLR). For participants on hemodialysis (Group 5), the additional PK parameters included the amount of solriamfetol cleared by the 4-hour hemodialysis (Adial); the fraction of dose removed by the 4-hour hemodialysis (Fdial); and hemodialysis clearance (CLdial) calculated as CLdial = Adial/AUCdial where AUCdial is the area under the pre-dialyzer plasma concentration-time curve during the hemodialysis period.

[1] = Group 3 moderate renal impairment
[2] = Group 4 severe renal impairment

SMILES: NC(=O)OC[C@H](N)Cc1ccccc1 [solriamfetol, [R]-2-amino-3-phenylpropylcarbamate]
- Fe(0-48), fraction of the dose excreted unchanged in urine in 48 hours, mean ± SD (%CV) (Group 1 normal renal function): 85.8%
- Fe(0-48), fraction of the dose excreted unchanged in urine in 48 hours, mean ± SD (%CV) (Group 2 mild renal impairment): 80.0%
- Fe(0-48), fraction of the dose excreted unchanged in urine in 48 hours, mean ± SD (%CV) [1]: 66.4%
- Fe(0-48), fraction of the dose excreted unchanged in urine in 48 hours, mean ± SD (%CV) [2]: 57.1%
- cumulative amount excreted in urine (with hemodialysis): 42.1%
- cumulative amount excreted in urine (without hemodialysis): 52.9%
- CL renal (Group 1 normal renal function): 283 mL/min
- CL renal (Group 2 mild renal impairment): 155 mL/min
- CL renal [1]: 96.7 mL/min
- CL renal [2]: 63.3 mL/min
- mean percentage of dose recovered in urine as unchanged drug over 72 hours (severe renal impairment): 64.0%
